ChEMBL document CHEMBL1135265, “Squaric acid derivatives as VLA-4 integrin antagonists” (Bioorg Med Chem Lett, 2002)

System: not listed separately
Assay: Rate constant (k) of clearance from isolated perfused rat liver (IPRL)
Assay type: ADME

First: CCN(CC)c1c(N[C@@H](Cc2ccc(-c3c(OC)cccc3OC)cc2)C(=O)O)c(=O)c1=O
Second: CCC/N=c1\c(O)c(O)\c1=N/[C@@H](Cc1ccc(-c2c(OC)cccc2OC)cc1)C(=O)O
The k el of the first is 5.6-fold higher: 0.00108 s⁻¹ for the first, 0.000194 s⁻¹ for the second.

`O=C(Nc1ccc(C[C@H](/N=c2/c(N3CCSCC3)c(O)c2=O)C(=O)O)cc1)c1c(Cl)cncc1Cl` and `O=C(Nc1ccc(C[C@H](/N=c2/c(N3CCOCC3)c(O)c2=O)C(=O)O)cc1)c1c(Cl)cncc1Cl` are within 1.5-fold of each other in k el: 0.00158 s⁻¹ for the first, 0.00139 s⁻¹ for the second.

`O=C(Nc1ccc(C[C@H](/N=c2\c(O)c(O)\c2=N/CCCC(F)(F)F)C(=O)O)cc1)c1c(Cl)cncc1Cl` and `O=C(Nc1ccc(C[C@H](/N=c2\c(O)c(O)\c2=N/CCC(F)(F)F)C(=O)O)cc1)c1c(Cl)cncc1Cl` are within 1.5-fold of each other in k el: 0.000306 s⁻¹ for the first, 0.000389 s⁻¹ for the second.

`CCCC(C)/N=c1\c(O)c(O)\c1=N/[C@@H](Cc1ccc(NC(=O)c2c(Cl)cncc2Cl)cc1)C(=O)O` (some centres undefined) and `CCC(C)/N=c1\c(O)c(O)\c1=N/[C@@H](Cc1ccc(NC(=O)c2c(Cl)cncc2Cl)cc1)C(=O)O` (some centres undefined) are within 1.5-fold of each other in k el: 0.000667 s⁻¹ for the first, 0.000861 s⁻¹ for the second.

Going from `C/N=c1\c(O)c(O)\c1=N/[C@@H](Cc1ccc(NC(=O)c2c(Cl)cncc2Cl)cc1)C(=O)O` to `CCC/N=c1\c(O)c(O)\c1=N/[C@@H](Cc1ccc(NC(=O)c2c(Cl)cncc2Cl)cc1)C(=O)O`, the k el falls from 0.00025 s⁻¹ to 2.78e-05 s⁻¹ (9-fold).

`CCN1CCN(c2c(N[C@@H](Cc3ccc(NC(=O)c4c(Cl)cncc4Cl)cc3)C(=O)O)c(=O)c2=O)CC1` and `CCN(C)c1c(N[C@@H](Cc2ccc(NC(=O)c3c(Cl)cncc3Cl)cc2)C(=O)O)c(=O)c1=O` are within 1.5-fold of each other in k el: 0.00103 s⁻¹ for the first, 0.00136 s⁻¹ for the second.

First: CCCCC/N=c1\c(O)c(O)\c1=N/[C@@H](Cc1ccc(NC(=O)c2c(Cl)cncc2Cl)cc1)C(=O)O
Second: O=C(Nc1ccc(C[C@H](/N=c2\c(O)c(O)\c2=N/Cc2ccccc2)C(=O)O)cc1)c1c(Cl)cncc1Cl
The k el of the first is 4.7-fold lower: 0.00025 s⁻¹ for the first, 0.00117 s⁻¹ for the second.

`O=C(Nc1ccc(C[C@H](/N=c2/c(N3CCNCC3)c(O)c2=O)C(=O)O)cc1)c1c(Cl)cncc1Cl` and `CN(C)c1c(N[C@@H](Cc2ccc(NC(=O)c3c(Cl)cncc3Cl)cc2)C(=O)O)c(=O)c1=O` are within 1.5-fold of each other in k el: 0.00125 s⁻¹ for the first, 0.00128 s⁻¹ for the second.

In the case of `CCCN(C)c1c(N[C@@H](Cc2ccc(NC(=O)c3c(Cl)cncc3Cl)cc2)C(=O)O)c(=O)c1=O`, the k el is reported as 0.00125 s⁻¹.

Biological target: T1, Integrin alpha-4/beta-1 (Homo sapiens, UniProt P05556+P13612)
Assay: Inhibition of binding of Very late antigen 4/vascular cell adhesion molecule 1 in a cell based ligand binding assay (Jurkat cells)

T1 sequence (P05556 whole entry): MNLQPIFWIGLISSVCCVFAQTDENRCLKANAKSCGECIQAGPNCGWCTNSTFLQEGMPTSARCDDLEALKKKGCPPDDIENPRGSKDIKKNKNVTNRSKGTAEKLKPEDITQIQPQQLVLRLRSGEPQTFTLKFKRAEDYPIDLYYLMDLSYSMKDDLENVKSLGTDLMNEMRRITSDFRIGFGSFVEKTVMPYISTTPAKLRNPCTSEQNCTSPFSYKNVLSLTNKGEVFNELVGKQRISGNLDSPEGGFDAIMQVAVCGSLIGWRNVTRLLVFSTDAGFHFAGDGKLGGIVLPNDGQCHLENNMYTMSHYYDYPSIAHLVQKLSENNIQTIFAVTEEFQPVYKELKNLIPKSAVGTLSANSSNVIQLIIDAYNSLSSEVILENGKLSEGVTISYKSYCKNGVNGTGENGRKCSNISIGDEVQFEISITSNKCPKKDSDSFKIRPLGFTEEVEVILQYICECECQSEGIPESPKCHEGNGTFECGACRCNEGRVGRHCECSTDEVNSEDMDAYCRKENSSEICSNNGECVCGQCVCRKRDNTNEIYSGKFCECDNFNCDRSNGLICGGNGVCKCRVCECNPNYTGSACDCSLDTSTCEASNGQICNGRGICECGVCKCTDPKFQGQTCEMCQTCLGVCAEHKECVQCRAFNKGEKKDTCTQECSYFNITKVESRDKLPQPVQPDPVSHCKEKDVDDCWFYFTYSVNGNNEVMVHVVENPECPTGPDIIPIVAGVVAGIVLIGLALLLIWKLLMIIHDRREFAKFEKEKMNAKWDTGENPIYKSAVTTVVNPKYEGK
T1 sequence (P13612 whole entry): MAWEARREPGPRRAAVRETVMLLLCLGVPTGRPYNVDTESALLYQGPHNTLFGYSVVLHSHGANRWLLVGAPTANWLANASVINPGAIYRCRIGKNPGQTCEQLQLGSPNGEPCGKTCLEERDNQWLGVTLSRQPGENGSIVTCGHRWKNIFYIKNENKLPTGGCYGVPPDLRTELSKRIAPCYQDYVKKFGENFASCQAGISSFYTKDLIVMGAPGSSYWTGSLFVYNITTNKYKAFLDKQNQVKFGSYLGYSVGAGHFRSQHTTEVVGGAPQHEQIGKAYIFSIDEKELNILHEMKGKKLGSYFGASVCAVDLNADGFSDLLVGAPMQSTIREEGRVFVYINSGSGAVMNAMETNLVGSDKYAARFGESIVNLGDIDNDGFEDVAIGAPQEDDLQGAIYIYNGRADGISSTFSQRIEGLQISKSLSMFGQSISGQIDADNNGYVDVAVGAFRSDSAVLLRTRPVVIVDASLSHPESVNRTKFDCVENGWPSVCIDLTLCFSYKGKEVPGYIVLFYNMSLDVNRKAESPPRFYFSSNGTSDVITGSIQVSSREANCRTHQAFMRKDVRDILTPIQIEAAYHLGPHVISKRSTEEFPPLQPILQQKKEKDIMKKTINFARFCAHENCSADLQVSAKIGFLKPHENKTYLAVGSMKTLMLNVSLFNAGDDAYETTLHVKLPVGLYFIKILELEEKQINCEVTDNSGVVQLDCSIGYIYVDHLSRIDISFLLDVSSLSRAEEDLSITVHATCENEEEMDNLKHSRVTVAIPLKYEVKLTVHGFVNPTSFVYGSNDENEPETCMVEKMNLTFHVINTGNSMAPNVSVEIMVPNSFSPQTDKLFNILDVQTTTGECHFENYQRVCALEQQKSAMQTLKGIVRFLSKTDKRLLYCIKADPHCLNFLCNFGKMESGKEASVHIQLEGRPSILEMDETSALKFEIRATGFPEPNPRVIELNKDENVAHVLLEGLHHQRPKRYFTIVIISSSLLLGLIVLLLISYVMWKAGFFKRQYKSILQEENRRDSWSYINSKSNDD

First: CCC/N=c1\c(O)c(O)\c1=N/[C@@H](Cc1ccc(-c2ccccc2OC)cc1)C(=O)O
Second: CCC/N=c1\c(O)c(O)\c1=N/[C@@H](Cc1ccc(-c2c(OC)cccc2OC)cc1)C(=O)O
The IC50 of the first is 15-fold higher: 10800 nM for the first, 710 nM for the second.

First: CCN(CC)c1c(N[C@@H](Cc2ccc(-c3c(OC)cccc3OC)cc2)C(=O)O)c(=O)c1=O
Second: CCN(C)c1c(N[C@@H](Cc2ccc(NC(=O)c3c(Cl)cncc3Cl)cc2)C(=O)O)c(=O)c1=O
The IC50 of the first is 1.8-fold higher: 180 nM for the first, 100 nM for the second.

Going from `O=C(Nc1ccc(C[C@H](/N=c2/c(N3CCSCC3)c(O)c2=O)C(=O)O)cc1)c1c(Cl)cncc1Cl` to `O=C(Nc1ccc(C[C@H](/N=c2/c(N3CCOCC3)c(O)c2=O)C(=O)O)cc1)c1c(Cl)cncc1Cl`, the IC50 rises from 3.1 nM to 11 nM (3.5-fold).

First: O=C(Nc1ccc(C[C@H](/N=c2\c(O)c(O)\c2=N/CCCC(F)(F)F)C(=O)O)cc1)c1c(Cl)cncc1Cl
Second: O=C(Nc1ccc(C[C@H](/N=c2\c(O)c(O)\c2=N/CCC(F)(F)F)C(=O)O)cc1)c1c(Cl)cncc1Cl
The IC50 of the first is 4.1-fold higher: 370 nM for the first, 90 nM for the second. The second is the more potent here.

First: CCCC(C)/N=c1\c(O)c(O)\c1=N/[C@@H](Cc1ccc(NC(=O)c2c(Cl)cncc2Cl)cc1)C(=O)O (some centres undefined)
Second: CCC(C)/N=c1\c(O)c(O)\c1=N/[C@@H](Cc1ccc(NC(=O)c2c(Cl)cncc2Cl)cc1)C(=O)O (some centres undefined)
The IC50 of the first is 3.2-fold lower: 50 nM for the first, 160 nM for the second. The first is the more potent here.

Compared with `C/N=c1\c(O)c(O)\c1=N/[C@@H](Cc1ccc(NC(=O)c2c(Cl)cncc2Cl)cc1)C(=O)O`, `CCC/N=c1\c(O)c(O)\c1=N/[C@@H](Cc1ccc(NC(=O)c2c(Cl)cncc2Cl)cc1)C(=O)O` is 8.2-fold lower in IC50: 990 nM for the first, 120 nM for the second. The second is the more potent here.

Compared with `CCN1CCN(c2c(N[C@@H](Cc3ccc(NC(=O)c4c(Cl)cncc4Cl)cc3)C(=O)O)c(=O)c2=O)CC1`, `CN(C)c1c(N[C@@H](Cc2ccc(NC(=O)c3c(Cl)cncc3Cl)cc2)C(=O)O)c(=O)c1=O` is 9.8-fold higher in IC50: 60 nM for the first, 590 nM for the second.

`CCCCC/N=c1\c(O)c(O)\c1=N/[C@@H](Cc1ccc(NC(=O)c2c(Cl)cncc2Cl)cc1)C(=O)O` and `O=C(Nc1ccc(C[C@H](/N=c2\c(O)c(O)\c2=N/Cc2ccccc2)C(=O)O)cc1)c1c(Cl)cncc1Cl` are within 1.5-fold of each other in IC50: 225 nM for the first, 320 nM for the second.

Going from `O=C(Nc1ccc(C[C@H](/N=c2/c(N3CCNCC3)c(O)c2=O)C(=O)O)cc1)c1c(Cl)cncc1Cl` to `CCCN(C)c1c(N[C@@H](Cc2ccc(NC(=O)c3c(Cl)cncc3Cl)cc2)C(=O)O)c(=O)c1=O`, the IC50 falls from 40 nM to 13 nM (3.1-fold).

Biological target: T1, Integrin alpha-4/beta-1
Assay: Inhibition of binding of Very late antigen 4/vascular cell adhesion molecule 1 in a protein-based ligand binding assay
Assay type: protein-complex assay

Going from `CCC/N=c1\c(O)c(O)\c1=N/[C@@H](Cc1ccc(-c2ccccc2OC)cc1)C(=O)O` to `CCC/N=c1\c(O)c(O)\c1=N/[C@@H](Cc1ccc(-c2c(OC)cccc2OC)cc1)C(=O)O`, the IC50 falls from 6.7 nM to 2.1 nM (3.2-fold).

Compared with `CCN(CC)c1c(N[C@@H](Cc2ccc(-c3c(OC)cccc3OC)cc2)C(=O)O)c(=O)c1=O`, `CCN(C)c1c(N[C@@H](Cc2ccc(NC(=O)c3c(Cl)cncc3Cl)cc2)C(=O)O)c(=O)c1=O` is 3-fold lower in IC50: 0.6 nM for the first, 0.2 nM for the second.

Compared with `O=C(Nc1ccc(C[C@H](/N=c2/c(N3CCSCC3)c(O)c2=O)C(=O)O)cc1)c1c(Cl)cncc1Cl`, `O=C(Nc1ccc(C[C@H](/N=c2/c(N3CCOCC3)c(O)c2=O)C(=O)O)cc1)c1c(Cl)cncc1Cl` is 1.7-fold higher in IC50: 0.3 nM for the first, 0.5 nM for the second.

`O=C(Nc1ccc(C[C@H](/N=c2\c(O)c(O)\c2=N/CCCC(F)(F)F)C(=O)O)cc1)c1c(Cl)cncc1Cl` and `CCCCC/N=c1\c(O)c(O)\c1=N/[C@@H](Cc1ccc(NC(=O)c2c(Cl)cncc2Cl)cc1)C(=O)O` are the same in IC50: 1 nM for the first, 1 nM for the second.

`CCCC(C)/N=c1\c(O)c(O)\c1=N/[C@@H](Cc1ccc(NC(=O)c2c(Cl)cncc2Cl)cc1)C(=O)O` (some centres undefined) and `CCC(C)/N=c1\c(O)c(O)\c1=N/[C@@H](Cc1ccc(NC(=O)c2c(Cl)cncc2Cl)cc1)C(=O)O` (some centres undefined) are within 1.5-fold of each other in IC50: 0.6 nM for the first, 0.5 nM for the second.

Going from `C/N=c1\c(O)c(O)\c1=N/[C@@H](Cc1ccc(NC(=O)c2c(Cl)cncc2Cl)cc1)C(=O)O` to `CCC/N=c1\c(O)c(O)\c1=N/[C@@H](Cc1ccc(NC(=O)c2c(Cl)cncc2Cl)cc1)C(=O)O`, the IC50 rises from 0.9 nM to 1.5 nM (1.7-fold). The first is the more potent here.

`CCN1CCN(c2c(N[C@@H](Cc3ccc(NC(=O)c4c(Cl)cncc4Cl)cc3)C(=O)O)c(=O)c2=O)CC1` and `CN(C)c1c(N[C@@H](Cc2ccc(NC(=O)c3c(Cl)cncc3Cl)cc2)C(=O)O)c(=O)c1=O` are the same in IC50: 0.5 nM for the first, 0.5 nM for the second.

First: O=C(Nc1ccc(C[C@H](/N=c2\c(O)c(O)\c2=N/Cc2ccccc2)C(=O)O)cc1)c1c(Cl)cncc1Cl
Second: O=C(Nc1ccc(C[C@H](/N=c2/c(N3CCNCC3)c(O)c2=O)C(=O)O)cc1)c1c(Cl)cncc1Cl
The IC50 of the first is 9.2-fold higher: 3.7 nM for the first, 0.4 nM for the second.

Work on `CCCN(C)c1c(N[C@@H](Cc2ccc(NC(=O)c3c(Cl)cncc3Cl)cc2)C(=O)O)c(=O)c1=O` yielded an IC50 of 0.2 nM.

Biological target: T1, Integrin alpha-4/beta-1
Assay: Inhibition of Jurkat cell VLA-4 adhesion to VCAM-1
Assay type: cell-based

For `CCC/N=c1\c(O)c(O)\c1=N/[C@@H](Cc1ccc(OCc2c(Cl)cccc2Cl)cc1)C(=O)O`, the IC50 was 18300 nM.

Biological target: T1, Integrin alpha-4/beta-1
Assay: Inhibition of very late antigen-4 (VLA-4)/vascular cell adhesion molecule-1(VCAM -1) interaction
Assay type: protein-complex assay

For `CCC/N=c1\c(O)c(O)\c1=N/[C@@H](Cc1ccc(OCc2c(Cl)cccc2Cl)cc1)C(=O)O`, the IC50 was 67 nM.
